{"source": "ChEMBL document CHEMBL5321293", "about": "“Discovery of ERD-3111 as a Potent and Orally Efficacious Estrogen Receptor PROTAC Degrader with Strong Antitumor Activity” (J Med Chem, 2023)", "key": {"Cytochrome P450 3A4": {"target": "Cytochrome P450 3A4 (Homo sapiens, UniProt P08684)", "sequence (P08684 whole entry)": "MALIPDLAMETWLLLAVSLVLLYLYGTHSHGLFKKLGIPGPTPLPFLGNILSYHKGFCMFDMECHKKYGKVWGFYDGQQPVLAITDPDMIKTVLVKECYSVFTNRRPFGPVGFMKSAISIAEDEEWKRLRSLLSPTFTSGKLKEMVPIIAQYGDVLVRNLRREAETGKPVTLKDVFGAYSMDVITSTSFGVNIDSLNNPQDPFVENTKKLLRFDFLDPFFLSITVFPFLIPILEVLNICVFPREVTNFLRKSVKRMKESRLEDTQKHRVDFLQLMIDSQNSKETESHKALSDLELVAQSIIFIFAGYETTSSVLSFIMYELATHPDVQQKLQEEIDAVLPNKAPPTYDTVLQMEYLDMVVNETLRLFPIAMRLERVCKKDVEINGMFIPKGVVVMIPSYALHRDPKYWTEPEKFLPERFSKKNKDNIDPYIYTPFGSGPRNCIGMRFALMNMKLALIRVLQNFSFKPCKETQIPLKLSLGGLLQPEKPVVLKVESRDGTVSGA", "experiment": "Inhibition of CYP3A4 in human liver microsomes using testosterone as substrate preincubated for 5 mins followed by NADPH addition and measured after 10 mins by LC-MS/MS analysis", "type": "ADME, Microsome"}, "[1]": {"experiment": "Cmax in Beagle dog at 1 mg/kg, po and measured upto 24 hrs by LC-MS/MS analysis", "type": "ADME, organism-based, Canis lupus familiaris", "set-up": "time < 24 hrs, dose 1 mg/kg, route po", "settings": "in vivo"}, "[2]": {"experiment": "Downregulation of ERalpha protein expression in tumor of CB17 SCID mouse xenografted with human MCF7 cells harboring ESR1 Y537S mutant at 30 mg/kg, po qd for 3 days and measured after 6 hrs last dose by Western blot analysis relative to control", "type": "functional", "settings": "time 3 day"}, "[3]": {"experiment": "Drug concentration in tumor of CB17 SCID mouse xenografted with human MCF7 cells harboring wild type ESR1 at 10 mg/kg, po qd for 3 days and measured after 6 hrs last dose by LC-MS/MS analysis", "type": "ADME, organism-based, Neoplasm", "settings": "time 3 day, read-out: Ct"}, "[4]": {"experiment": "Metabolic stability in human liver microsomes assessed as half life at 1 uM and measured upto 60 mins in presence of NADPH by LC-MS/MS analysis", "type": "ADME, Microsome"}, "[5]": {"experiment": "Clearance in Sprague-Dawley rat at 1 mg/kg, iv and measured upto 24 hrs by LC-MS/MS analysis", "settings": "in vivo"}, "Cytochrome P450 2C8": {"target": "T1, Cytochrome P450 2C8 (Homo sapiens, UniProt P10632)", "T1 sequence (P10632 whole entry)": "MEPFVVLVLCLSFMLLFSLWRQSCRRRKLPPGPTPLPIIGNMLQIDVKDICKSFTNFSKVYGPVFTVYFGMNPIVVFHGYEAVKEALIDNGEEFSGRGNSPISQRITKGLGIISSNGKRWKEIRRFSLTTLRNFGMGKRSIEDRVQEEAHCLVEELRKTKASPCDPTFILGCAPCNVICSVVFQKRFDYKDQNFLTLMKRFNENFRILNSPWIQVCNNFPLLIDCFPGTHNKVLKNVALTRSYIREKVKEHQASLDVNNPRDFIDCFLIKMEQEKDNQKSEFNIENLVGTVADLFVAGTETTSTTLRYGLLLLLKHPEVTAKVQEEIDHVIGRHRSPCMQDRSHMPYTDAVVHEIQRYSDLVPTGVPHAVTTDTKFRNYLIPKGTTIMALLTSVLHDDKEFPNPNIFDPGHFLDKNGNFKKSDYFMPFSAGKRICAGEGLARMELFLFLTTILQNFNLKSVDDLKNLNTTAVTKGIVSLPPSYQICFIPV", "experiment": "Inhibition of CYP2C8 in human liver microsomes preincubated for 5 mins in presence substrate followed by NADPH addition and measured after 10 mins by LC-MS/MS analysis", "type": "ADME, Microsome"}, "MCF7 [6]": {"system": "MCF7", "experiment": "Antitumor activity against human MCF7 cells harboring ESR1 D538G mutant xenografted in CB17 SCID mouse assessed as tumor growth inhibition at 10 mg/kg, po qd for 4 weeks and measured 1 week post last dose", "type": "functional, organism-based"}, "[7]": {"experiment": "Downregulation of ERalpha protein expression in tumor of CB17 SCID mouse xenografted with human MCF7 cells harboring wild type ESR1 at 30 mg/kg, po qd for 3 days and measured after 24 hrs last dose by Western blot analysis relative to control", "type": "functional", "settings": "time 3 day"}, "MCF7 [8]": {"system": "MCF7", "experiment": "Antitumor activity against human MCF7 cells harboring ESR1 D538G mutant xenografted in CB17 SCID mouse assessed as tumor growth inhibition at 10 mg/kg, po qd for 4 weeks", "type": "functional", "settings": "MCF7, 672 h, read-out: TGI"}, "[9]": {"target": "Voltage-gated inwardly rectifying potassium channel KCNH2 (Homo sapiens, UniProt Q12809)", "sequence (Q12809 whole entry)": "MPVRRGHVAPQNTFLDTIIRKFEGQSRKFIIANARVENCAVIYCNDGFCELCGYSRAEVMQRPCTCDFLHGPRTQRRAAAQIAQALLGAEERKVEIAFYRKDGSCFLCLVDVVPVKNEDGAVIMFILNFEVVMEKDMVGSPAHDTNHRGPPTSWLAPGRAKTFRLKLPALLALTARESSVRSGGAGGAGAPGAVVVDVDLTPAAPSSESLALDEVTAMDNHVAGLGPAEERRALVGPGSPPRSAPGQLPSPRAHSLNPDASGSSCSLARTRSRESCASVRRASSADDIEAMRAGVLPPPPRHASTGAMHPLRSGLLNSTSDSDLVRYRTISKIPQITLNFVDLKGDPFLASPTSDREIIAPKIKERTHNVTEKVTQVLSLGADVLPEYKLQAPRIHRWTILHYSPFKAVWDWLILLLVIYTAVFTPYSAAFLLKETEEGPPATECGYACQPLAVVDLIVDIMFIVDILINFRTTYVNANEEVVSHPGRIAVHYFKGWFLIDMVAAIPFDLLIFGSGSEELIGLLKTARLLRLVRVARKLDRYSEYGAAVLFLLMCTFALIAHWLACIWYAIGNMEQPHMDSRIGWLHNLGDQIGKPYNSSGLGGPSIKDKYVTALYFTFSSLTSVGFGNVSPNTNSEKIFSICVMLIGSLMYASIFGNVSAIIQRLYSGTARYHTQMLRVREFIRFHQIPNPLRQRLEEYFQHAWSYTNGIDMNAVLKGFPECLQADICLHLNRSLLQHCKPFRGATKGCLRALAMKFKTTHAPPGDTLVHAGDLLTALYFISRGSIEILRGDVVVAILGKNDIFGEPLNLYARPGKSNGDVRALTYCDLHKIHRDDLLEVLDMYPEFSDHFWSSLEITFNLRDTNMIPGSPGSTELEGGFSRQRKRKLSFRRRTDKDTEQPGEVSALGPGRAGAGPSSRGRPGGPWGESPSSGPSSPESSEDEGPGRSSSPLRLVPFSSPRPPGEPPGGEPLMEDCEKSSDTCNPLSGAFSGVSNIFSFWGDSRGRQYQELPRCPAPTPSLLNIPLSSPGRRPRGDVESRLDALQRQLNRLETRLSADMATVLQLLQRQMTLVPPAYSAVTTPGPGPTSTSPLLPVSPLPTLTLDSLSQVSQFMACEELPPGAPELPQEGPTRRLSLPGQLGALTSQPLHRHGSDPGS", "experiment": "Inhibition of human ERG in human HEK293 cells incubated for 5 mins by patch clamp assay", "type": "toxicity, cell-based"}, "[10]": {"experiment": "Drug concentration in tumor of CB17 SCID mouse xenografted with human MCF7 cells harboring wild type ESR1 at 30 mg/kg, po qd for 3 days and measured after 6 hrs last dose by LC-MS/MS analysis", "type": "ADME, organism-based, Neoplasm", "settings": "time 3 day, read-out: Ct"}, "[11]": {"experiment": "Toxicity in CB17 SCID mouse xenografted with human MCF7 cells harboring ESR1 Y537S mutant assessed as body weight change at 10 mg/kg,po qd for 4 weeks", "type": "organism-based", "settings": "in vivo, 672 h"}, "MCF7 [12]": {"system": "MCF7", "experiment": "Antitumor activity against human MCF7 cells harboring ESR1 D538G mutant xenografted in CB17 SCID mouse assessed as tumor growth inhibition at 30 mg/kg, po qd for 4 weeks", "type": "functional", "settings": "MCF7, 672 h, read-out: TGI"}, "[13]": {"experiment": "Downregulation of ERalpha protein expression in tumor of CB17 SCID mouse xenografted with human MCF7 cells harboring wild type ESR1 at 30 mg/kg, po qd for 3 days and measured after 3 hrs last dose by Western blot analysis relative to control", "type": "functional", "settings": "time 3 day"}, "[14]": {"experiment": "AUC in ICR mouse at 3 mg/kg, po and measured upto 24 hrs by LC-MS/MS analysis", "type": "ADME, organism-based", "set-up": "dose 3 mg/kg, time < 24 hrs, route po", "settings": "in vivo"}, "[15]": {"experiment": "Toxicity in CB17 SCID mouse xenografted with human MCF7 cells harboring ESR1 D538G mutant assessed as body weight change at 30 mg/kg,po qd for 4 weeks", "type": "organism-based", "settings": "in vivo, 672 h"}, "MCF7 [16]": {"system": "MCF7", "experiment": "Antitumor activity against human MCF7 cells harboring ESR1 Y537S mutant xenografted in CB17 SCID mouse assessed as tumor growth inhibition at 10 mg/kg, po qd for 4 weeks", "type": "functional", "settings": "MCF7, 672 h, read-out: TGI"}, "[17]": {"experiment": "Drug concentration in plasma of CB17 SCID mouse xenografted with human MCF7 cells harboring ESR1 Y537S mutant at 30 mg/kg, po qd for 3 days and measured after 6 hrs last dose by LC-MS/MS analysis", "type": "ADME, organism-based", "settings": "time 3 day"}, "[18]": {"target": "Protein cereblon/Estrogen receptor (Homo sapiens, UniProt P03372+Q96SW2)", "sequence (P03372 whole entry, looked up)": "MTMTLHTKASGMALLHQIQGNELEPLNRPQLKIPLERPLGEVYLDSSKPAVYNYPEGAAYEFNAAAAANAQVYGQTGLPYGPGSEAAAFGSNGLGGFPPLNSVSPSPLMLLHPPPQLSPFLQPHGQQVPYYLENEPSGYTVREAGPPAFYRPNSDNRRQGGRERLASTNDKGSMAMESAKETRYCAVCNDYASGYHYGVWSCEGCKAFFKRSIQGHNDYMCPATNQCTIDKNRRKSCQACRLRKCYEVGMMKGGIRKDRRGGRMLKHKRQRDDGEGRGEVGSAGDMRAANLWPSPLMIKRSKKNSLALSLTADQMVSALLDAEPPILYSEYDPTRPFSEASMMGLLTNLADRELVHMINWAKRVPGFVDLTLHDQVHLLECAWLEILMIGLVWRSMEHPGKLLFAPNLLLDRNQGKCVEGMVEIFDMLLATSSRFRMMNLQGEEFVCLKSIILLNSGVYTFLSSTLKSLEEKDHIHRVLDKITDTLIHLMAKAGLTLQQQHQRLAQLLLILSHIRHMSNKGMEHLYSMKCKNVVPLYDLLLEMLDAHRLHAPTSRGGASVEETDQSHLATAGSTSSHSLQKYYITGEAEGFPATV", "sequence (Q96SW2 whole entry, looked up)": "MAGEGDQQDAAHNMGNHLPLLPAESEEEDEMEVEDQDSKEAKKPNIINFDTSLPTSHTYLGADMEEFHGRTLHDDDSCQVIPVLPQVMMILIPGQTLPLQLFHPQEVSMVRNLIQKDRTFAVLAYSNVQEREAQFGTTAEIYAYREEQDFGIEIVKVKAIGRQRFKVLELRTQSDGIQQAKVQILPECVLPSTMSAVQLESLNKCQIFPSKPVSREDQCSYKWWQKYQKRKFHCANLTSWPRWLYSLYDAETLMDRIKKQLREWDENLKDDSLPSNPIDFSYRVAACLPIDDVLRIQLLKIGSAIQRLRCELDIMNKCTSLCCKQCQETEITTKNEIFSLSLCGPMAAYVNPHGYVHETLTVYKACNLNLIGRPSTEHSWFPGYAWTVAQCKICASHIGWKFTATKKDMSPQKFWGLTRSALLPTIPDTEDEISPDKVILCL", "experiment": "Protac activity at human ERalpha in human T47D cells assessed as reduction in ERalpha protein level at 0.1 to 100 nM by Western blot analysis", "type": "cell-based", "settings": "dose 0.1-100 nM"}, "[19]": {"experiment": "Drug concentration in plasma of CB17 SCID mouse xenografted with human MCF7 cells harboring ESR1 Y537S mutant at 10 mg/kg, po qd for 3 days and measured after 6 hrs last dose by LC-MS/MS analysis", "type": "ADME, organism-based", "settings": "time 3 day"}, "[20]": {"experiment": "Drug concentration in plasma of CB17 SCID mouse xenografted with human MCF7 cells harboring wild type ESR1 at 30 mg/kg, po qd for 3 days and measured after 6 hrs last dose by LC-MS/MS analysis", "type": "ADME, organism-based", "settings": "time 3 day"}, "MCF7 [21]": {"system": "MCF7", "experiment": "Antitumor activity against human MCF7 cells harboring ESR1 Y537S mutant xenografted in CB17 SCID mouse assessed as tumor growth inhibition at 10 mg/kg, po qd for 4 weeks and measured 30 days post last dose", "type": "functional", "settings": "MCF7, 672 h, read-out: TGI"}, "[22]": {"experiment": "Volume of distribution at steady state in ICR mouse at 1 mg/kg, iv and measured upto 24 hrs by LC-MS/MS analysis", "type": "ADME, organism-based", "settings": "in vivo, read-out: Vdss"}, "[23]": {"experiment": "AUC in Sprague-Dawley rat at 3 mg/kg, po and measured upto 24 hrs by LC-MS/MS analysis", "type": "ADME, organism-based", "set-up": "dose 3 mg/kg, time < 24 hrs, route po", "settings": "Sprague-Dawley, in vivo"}, "in vivo": {"experiment": "in vivo", "settings": "Sprague-Dawley, rat, po, 3 mg/kg"}, "[24]": {"experiment": "Clearance in Beagle dog at 0.5 mg/kg, iv and measured upto 24 hrs by LC-MS/MS analysis", "type": "ADME, organism-based, Canis lupus familiaris", "settings": "in vivo"}, "[25]": {"experiment": "Volume of distribution at steady state in Sprague-Dawley rat at 1 mg/kg, iv and measured upto 24 hrs by LC-MS/MS analysis", "settings": "in vivo"}}, "note": "Activity calls are given as the source filed them. The rule behind the calls is not given here."}
{"smiles": "C[C@@H]1Cc2c(ccc3[nH]ncc23)[C@@H](c2c(F)cc(N3CCC4(CCN(C(=O)CN5Cc6cc7c(cc6C5)C(=O)N(C5CCC(=O)NC5=O)C7=O)CC4)CC3)cc2F)N1CC(F)F", "note": "(stereo partly drawn)", "values": [{"measurement": "IC50", "setting": "Cytochrome P450 3A4", "result": "> 10", "unit": "µM"}, {"measurement": "Cmax", "setting": "[1]", "result": 87, "unit": "ng/mL"}, {"measurement": "Activity", "setting": "[2]", "result": 85, "unit": "%"}, {"measurement": "concentration at 72 h", "setting": "[3]", "result": 385, "unit": "ng/mL"}, {"measurement": "half-life at 1 µM", "setting": "[4]", "result": "> 1", "unit": "h"}, {"measurement": "clearance at 24 h", "setting": "[5]", "result": 7.4, "unit": "mL/min/kg"}, {"measurement": "IC50", "setting": "Cytochrome P450 2C8", "result": "> 10", "unit": "µM"}, {"measurement": "Activity", "setting": "MCF7 [6]", "result": "Active"}, {"measurement": "Activity", "setting": "[7]", "result": 73, "unit": "%"}, {"measurement": "inhibition in vivo at 10 mg/kg", "setting": "MCF7 [8]", "result": 38, "unit": "%"}, {"measurement": "IC50", "setting": "[9]", "result": "> 30", "unit": "µM"}, {"measurement": "concentration at 72 h", "setting": "[10]", "result": 1470, "unit": "ng/mL"}, {"measurement": "Activity", "setting": "[11]", "result": "Non-Toxic"}, {"measurement": "inhibition in vivo at 30 mg/kg", "setting": "MCF7 [12]", "result": 51, "unit": "%"}, {"measurement": "Activity", "setting": "[13]", "result": 82, "unit": "%"}, {"measurement": "AUC at 24 h", "setting": "[14]", "result": 3370, "unit": "ng·h/mL"}, {"measurement": "Activity", "setting": "[15]", "result": "Non-Toxic"}, {"measurement": "inhibition in vivo at 10 mg/kg", "setting": "MCF7 [16]", "result": 72, "unit": "%"}, {"measurement": "concentration at 72 h", "setting": "[17]", "result": 2830, "unit": "ng/mL"}, {"measurement": "Activity", "setting": "[18]", "result": "Dose-Dependent Effect"}, {"measurement": "concentration at 72 h", "setting": "[19]", "result": 502, "unit": "ng/mL"}, {"measurement": "concentration at 72 h", "setting": "[20]", "result": 1440, "unit": "ng/mL"}, {"measurement": "inhibition in vivo at 10 mg/kg", "setting": "MCF7 [21]", "result": 99, "unit": "%"}, {"measurement": "Vd", "setting": "[22]", "result": 3.2, "unit": "L/kg"}, {"measurement": "AUC at 24 h", "setting": "[23]", "result": 1320, "unit": "ng·h/mL"}, {"measurement": "Cmax at 24 h", "setting": "in vivo", "result": 141, "unit": "ng/mL"}, {"measurement": "clearance", "setting": "[24]", "result": 11, "unit": "mL/min/kg"}, {"measurement": "Vd at 24 h", "setting": "[25]", "result": 1.3, "unit": "L/kg"}]}
